# Measurements as given in US10570121B2, “Substituted dihydroisoquinolinone compounds” (priority 2014, dated 2020).
# Where two headings read alike, the source gives them in different places.
# Columns and labels:
# [1] = biological target: WT EZH2 (Homo sapiens (Human), UniProt Q15910); assay: WT EZH2 nucleosome assay (10X SAM, high SAM conditions); assay type: biochemical; conditions: 15 uM SAM, Ki app from competitive inhibition fit
# [2] = biological target: EZH2 Mutant Y641N (Homo sapiens (Human), UniProt Q15910, Y641N); assay: EZH2 Mutant Y641N nucleosome assay; assay type: biochemical; conditions: PRC2 4-protein complex 6 nM, 1.5 μM SAM, HeLa oligonucleosomes
# Sequence of EZH2 Mutant Y641N (Q15910 whole entry Y641N, looked up): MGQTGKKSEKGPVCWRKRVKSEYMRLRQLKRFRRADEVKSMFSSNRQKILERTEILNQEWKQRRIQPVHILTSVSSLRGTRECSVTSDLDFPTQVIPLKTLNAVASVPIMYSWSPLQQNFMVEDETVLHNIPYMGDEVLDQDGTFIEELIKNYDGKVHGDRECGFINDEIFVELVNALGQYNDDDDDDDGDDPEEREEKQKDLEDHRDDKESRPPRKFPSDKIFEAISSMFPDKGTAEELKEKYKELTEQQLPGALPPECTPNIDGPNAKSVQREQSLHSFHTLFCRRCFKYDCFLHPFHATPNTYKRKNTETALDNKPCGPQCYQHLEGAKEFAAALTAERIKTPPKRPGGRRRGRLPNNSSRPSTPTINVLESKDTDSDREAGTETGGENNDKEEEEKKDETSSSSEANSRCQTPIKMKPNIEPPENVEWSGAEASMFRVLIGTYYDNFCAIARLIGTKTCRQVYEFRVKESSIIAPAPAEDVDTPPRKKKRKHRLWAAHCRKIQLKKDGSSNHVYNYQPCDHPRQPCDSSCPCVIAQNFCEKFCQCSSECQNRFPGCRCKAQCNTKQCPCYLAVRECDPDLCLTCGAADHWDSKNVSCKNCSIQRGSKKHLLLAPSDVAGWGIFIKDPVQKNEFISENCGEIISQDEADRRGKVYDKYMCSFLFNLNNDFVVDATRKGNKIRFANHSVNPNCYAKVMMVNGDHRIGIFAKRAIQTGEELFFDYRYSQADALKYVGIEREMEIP
# Sequence of EZH2 Mutant Y641N (O75530 whole entry partner, looked up): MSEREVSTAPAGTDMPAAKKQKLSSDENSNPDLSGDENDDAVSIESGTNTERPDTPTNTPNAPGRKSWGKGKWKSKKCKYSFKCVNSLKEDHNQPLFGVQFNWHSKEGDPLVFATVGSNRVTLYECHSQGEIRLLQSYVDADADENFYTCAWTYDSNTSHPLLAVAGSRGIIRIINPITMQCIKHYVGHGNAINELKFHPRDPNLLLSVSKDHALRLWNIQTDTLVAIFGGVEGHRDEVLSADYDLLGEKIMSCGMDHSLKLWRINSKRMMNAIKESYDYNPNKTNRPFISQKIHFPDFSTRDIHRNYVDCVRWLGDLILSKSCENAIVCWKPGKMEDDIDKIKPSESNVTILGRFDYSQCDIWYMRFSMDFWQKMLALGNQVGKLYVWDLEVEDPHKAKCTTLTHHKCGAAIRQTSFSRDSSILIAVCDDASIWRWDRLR
# Sequence of EZH2 Mutant Y641N (Q15022 whole entry partner, looked up): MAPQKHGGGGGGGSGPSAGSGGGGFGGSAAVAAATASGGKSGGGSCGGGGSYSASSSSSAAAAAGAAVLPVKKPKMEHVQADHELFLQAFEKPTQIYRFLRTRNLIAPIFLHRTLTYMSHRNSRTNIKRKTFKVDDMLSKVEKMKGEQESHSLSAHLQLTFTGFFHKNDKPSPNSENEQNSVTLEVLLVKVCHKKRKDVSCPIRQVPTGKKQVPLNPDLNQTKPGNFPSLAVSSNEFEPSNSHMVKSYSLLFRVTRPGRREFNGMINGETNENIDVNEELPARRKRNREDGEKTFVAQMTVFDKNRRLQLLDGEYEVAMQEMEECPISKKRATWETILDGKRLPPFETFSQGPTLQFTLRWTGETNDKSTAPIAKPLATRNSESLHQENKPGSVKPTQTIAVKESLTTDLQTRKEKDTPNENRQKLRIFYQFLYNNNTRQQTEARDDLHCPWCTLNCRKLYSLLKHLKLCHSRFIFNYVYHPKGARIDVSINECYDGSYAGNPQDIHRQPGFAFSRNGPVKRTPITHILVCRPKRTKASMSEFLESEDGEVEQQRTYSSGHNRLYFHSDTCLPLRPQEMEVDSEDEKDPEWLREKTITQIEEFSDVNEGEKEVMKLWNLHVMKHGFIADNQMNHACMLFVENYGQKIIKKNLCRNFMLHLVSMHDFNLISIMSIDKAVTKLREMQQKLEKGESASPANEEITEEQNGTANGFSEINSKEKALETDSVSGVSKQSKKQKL
# Sequence of EZH2 Mutant Y641N (Q09028 whole entry partner, looked up): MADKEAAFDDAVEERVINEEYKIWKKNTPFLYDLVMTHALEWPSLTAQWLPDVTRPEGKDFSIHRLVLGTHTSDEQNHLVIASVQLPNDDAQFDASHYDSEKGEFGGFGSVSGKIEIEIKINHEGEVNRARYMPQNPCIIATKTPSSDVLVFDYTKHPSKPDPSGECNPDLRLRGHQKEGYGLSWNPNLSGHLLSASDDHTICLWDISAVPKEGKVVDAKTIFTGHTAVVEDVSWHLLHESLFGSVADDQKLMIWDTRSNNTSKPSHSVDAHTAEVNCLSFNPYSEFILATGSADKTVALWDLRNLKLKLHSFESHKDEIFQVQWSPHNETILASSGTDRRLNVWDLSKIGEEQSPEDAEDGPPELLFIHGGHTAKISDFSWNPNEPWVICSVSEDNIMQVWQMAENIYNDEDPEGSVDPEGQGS
# [3] = read-out: WT EZH2 Nucleosome assay (10X SAM) Ki
# [4] = read-out: EZH2 Mutant Y641N Nucleosome assay IC50
# Sequence of WT EZH2 (Q15910 whole entry, looked up): as the sequence (Q15910 whole entry Y641N, looked up) above, with N641Y counted along it
# Sequence of WT EZH2 (O75530 whole entry partner, looked up): as the sequence (O75530 whole entry partner, looked up) above
# Sequence of WT EZH2 (Q15022 whole entry partner, looked up): as the sequence (Q15022 whole entry partner, looked up) above
# Sequence of WT EZH2 (Q09028 whole entry partner, looked up): as the sequence (Q09028 whole entry partner, looked up) above
Compound,"Ki [1, 3]","IC50 [2, 4]",Ki ([1]; WT EZH2 Nucleosome assay (10X SAM) Ki (μM)),IC50 ([2]; EZH2 Mutant Y641N Nucleosome assay IC50 (μM))
"COC(c1cc(Cl)c2c(c1Cl)C(=O)N(Cc1c(C)cc(C)[nH]c1=O)CC2)C1CN(S(C)(=O)=O)C1 (single isomer, unassigned) [Example 176]",0.0003 µM,0.005 µM,,
COc1cc(C)[nH]c(=O)c1CN1CCc2c(Cl)cc([C@H](CO)[C@H]3CCCO3)c(Cl)c2C1=O [Example 105],0.0008 µM,0.013 µM,,
"COC(c1ccc2c(c1Cl)C(=O)N(Cc1c(C)cc(C)[nH]c1=O)CC2)C1CCOC1 (single isomer, unassigned) [Example 134]",0.131 µM,1.93 µM,,
Cc1cc(C)c(CN2CCc3c(Cl)cc(C(C)N4CCN(C)CC4)c(Cl)c3C2=O)c(=O)[nH]1 (racemic) [Example 202],0.016 µM,0.207 µM,,
"COC(c1cc(Cl)c2c(c1Cl)C(=O)N(Cc1c(C)cc(C)[nH]c1=O)CC2)C1CN(C(=O)[C@@H](C)O)C1 (single isomer, unassigned) [Example 170]",0.0008 µM,0.014 µM,,
"COC(c1cc(Cl)c2c(c1Cl)C(=O)N(Cc1c(C)cc(C)[nH]c1=O)CC2)C1CCOCC1 (single isomer, unassigned) [Example 50]",0.077 µM,0.129 µM,,

# Results, then the molecule that gave them:
"Ki [1, 3]","IC50 [2, 4]",Ki ([1]; WT EZH2 Nucleosome assay (10X SAM) Ki (μM)),IC50 ([2]; EZH2 Mutant Y641N Nucleosome assay IC50 (μM)),Compound
0.673 µM,7.77 µM,,,"Cc1cc(C)c(CN2CCc3c(Cl)cc(C(CO)O[C@@H]4CCOC4)c(Cl)c3C2=O)c(=O)[nH]1 (single isomer, unassigned) [Example 104]"
0.323 µM,4.87 µM,,,"Cc1cc(OC(F)F)c(CN2CCc3c(Cl)cc(C(CO)C4CCOC4)c(Cl)c3C2=O)c(=O)[nH]1 (single isomer, unassigned) [Example 94]"
0.001 µM,0.009 µM,,,"Cc1cc(OC(F)F)c(CN2CCc3c(Cl)cc(C(CO)C4CCOC4)c(Cl)c3C2=O)c(=O)[nH]1 (single isomer, unassigned) [Example 92]"
,,0.133 µM,1.17 µM,"COC(c1cc(Cl)c2c(c1Cl)C(=O)N(Cc1c(C)cc(C)[nH]c1=O)CC2)C1CCN(C)CC1 (single isomer, unassigned) [Example 137]"
